Measured values reported in ChEMBL document CHEMBL1128109, “Phenolic replacements for cysteine in farnesyl transferase inhibitors based on CVFM” (Bioorg Med Chem Lett, 1995).

Target: T1, Protein farnesyltransferase (Rattus norvegicus, UniProt Q02293+Q04631)
Assay: Inhibition of farnesyl transferase
Assay type: protein-complex assay

Point of comparison: CSCC[C@H](NC(=O)[C@H](Cc1ccccc1)NC(=O)[C@@H](NCc1cc(O)ccc1O)C(C)C)C(=O)O, IC50 24 µM. Against it:
- CC[C@H](C)[C@H](NC(=O)[C@@H](NC(=O)[C@@H](N)CO)C(C)C)C(=O)N[C@@H](CCSC)C(=O)O — higher, > 100 µM
- CSCC[C@H](NC(=O)[C@H](Cc1ccccc1)NC[C@@H](NCc1cc(Cl)ccc1O)C(C)C)C(=O)O — 10-fold lower, 2.3 µM
- CSCC[C@H](NC(=O)[C@H](Cc1ccccc1)NC(=O)[C@@H](NCc1ncccc1O)C(C)C)C(=O)O — within 1.5-fold, 30 µM
- CCCOC(=O)c1ccc(O)c(CN[C@H](C(=O)N[C@@H](Cc2ccccc2)C(=O)N[C@@H](CCSC)C(=O)O)C(C)C)c1 — 4.2-fold higher, ~100 µM
- CSCC[C@H](NC(=O)[C@H](Cc1ccccc1)NC(=O)[C@@H](NCc1cccc(O)c1)C(C)C)C(=O)O — 1.8-fold lower, 13 µM
- CSCC[C@H](NC(=O)[C@H](Cc1ccccc1)NC(=O)[C@@H](NC(c1ncccc1O)c1ncccc1O)C(C)C)C(=O)O — within 1.5-fold, 30 µM
- CSCC[C@H](NC(=O)[C@H](Cc1ccccc1)NC(=O)[C@@H](NCc1ccccc1)C(C)C)C(=O)O — within 1.5-fold, 21 µM
- CSCC[C@H](NC(=O)[C@H](Cc1ccccc1)NC(=O)[C@@H](NCc1cc(Br)ccc1O)C(C)C)C(=O)O — 53-fold lower, 0.45 µM
- CSCC[C@H](NC(=O)[C@H](Cc1ccccc1)NC(=O)[C@@H](NCc1ccccc1SC(c1ccccc1)c1ccccc1)C(C)C)C(=O)O — 4.2-fold higher, ~100 µM
- COCCOCOc1ccc(Cl)cc1CN[C@H](C(=O)N[C@@H](Cc1ccccc1)C(=O)N[C@@H](CCSC)C(=O)O)C(C)C — 32-fold lower, 0.76 µM
- CSCC[C@H](NC(=O)[C@H](Cc1ccccc1)NC(=O)[C@@H](NCc1ccccc1O)C(C)C)C(=O)O — 10-fold lower, 2.4 µM
- COCCOCOc1ccc(C(F)(F)F)cc1CN[C@H](C(=O)N[C@@H](Cc1ccccc1)C(=O)N[C@@H](CCSC)C(=O)O)C(C)C — 1.5-fold lower, 16 µM
- COc1ccc(O)c(CN[C@H](C(=O)N[C@@H](Cc2ccccc2)C(=O)N[C@@H](CCSC)C(=O)O)C(C)C)c1 — 6.3-fold lower, 3.8 µM
- CSCC[C@H](NC(=O)[C@H](Cc1ccccc1)NC(=O)[C@@H](NCc1cc(Cl)ccc1O)C(C)C)C(=O)O — 48-fold lower, 0.5 µM
- CSCC[C@H](NC(=O)[C@H](Cc1ccccc1)NC(=O)[C@@H](NCc1cccc(OC/C=C(\C)CC/C=C(\C)CCC=C(C)C)c1O)C(C)C)C(=O)O — 2.9-fold higher, 70 µM
- CSCC[C@H](NC(=O)[C@H](Cc1ccccc1)NC(=O)[C@@H](NCc1cc(C(F)(F)F)ccc1O)C(C)C)C(=O)O — 11-fold lower, 2.1 µM
- CSCC[C@H](NC(=O)[C@H](Cc1ccccc1)NC(=O)[C@@H](NCc1ccc(O)cc1)C(C)C)C(=O)O — within 1.5-fold, 17 µM
- CSCC[C@H](NC(=O)[C@H](Cc1ccccc1)NC(=O)[C@@H](NCc1ccccc1S)C(C)C)C(=O)O — within 1.5-fold, 22 µM
- CC(C)[C@H](NCc1cc(F)ccc1O)C(=O)N[C@@H](Cc1ccccc1)C(=O)N[C@@H](CC[S+](C)[O-])C(=O)O (some centres undefined) — 15-fold lower, 1.6 µM
- CSCC[C@H](NC(=O)[C@H](Cc1ccccc1)NC(=O)[C@@H](NCc1cccc(F)c1O)C(C)C)C(=O)O — 9.6-fold lower, 2.5 µM
- CC[C@H](C)[C@H](NC(=O)[C@@H](NC(=O)[C@@H](N)CS)C(C)C)C(=O)N[C@@H](CCSC)C(=O)O — 96-fold lower, 0.25 µM
- CSCC[C@H](NC(=O)[C@H](Cc1ccccc1)NC(=O)[C@@H](NCc1c(O)ccc2ccccc12)C(C)C)C(=O)O — 3.8-fold lower, 6.3 µM

Target: T1, Protein farnesyltransferase
Assay: Inhibitory activity against Farnesyl transferase; 8.5-27.0
Assay type: protein-complex assay

With CSCC[C@H](NC(=O)[C@H](Cc1ccccc1)NC(=O)[C@@H](NCc1cc(C(=O)O)ccc1O)C(C)C)C(=O)O the IC50 was 8.5 µM.
